{"source": "patent US7709471B2", "about": "“Compounds” (AstraZeneca AB, priority 2006, dated 2010)", "key": {"[1]": {"test_system": "human colon tumour cell line HT29", "assay": "Cellular Assay (phosphohistone H3 Ser10 mitotic marker, HT29)", "format": "cell-based", "conditions": "HT-29, 24 h, HT29 cells, read-out: IC50 (cellular assay, phosphohistone H3)", "experimental": "Chromosome condensation in mitosis is accompanied by phosphorylation of histone H3 on serine 10.\nAfter 24 hours, cells were fixed in 3.7% (v/v) formaldehyde then permeabilised and blocked for 10 minutes in 100 μl 0.5% (v/v) Triton X-100, 1% (w/v) bovine serum albumin (BSA) in phosphate buffered saline (PBS). […] The raw assay data were analysed by non-linear regression analysis and used to determine an IC50 value for each compound."}, "[2]": {"target": "recombinant Plk1 (Homo sapiens, UniProt P53350)", "sequence (P53350 whole entry)": "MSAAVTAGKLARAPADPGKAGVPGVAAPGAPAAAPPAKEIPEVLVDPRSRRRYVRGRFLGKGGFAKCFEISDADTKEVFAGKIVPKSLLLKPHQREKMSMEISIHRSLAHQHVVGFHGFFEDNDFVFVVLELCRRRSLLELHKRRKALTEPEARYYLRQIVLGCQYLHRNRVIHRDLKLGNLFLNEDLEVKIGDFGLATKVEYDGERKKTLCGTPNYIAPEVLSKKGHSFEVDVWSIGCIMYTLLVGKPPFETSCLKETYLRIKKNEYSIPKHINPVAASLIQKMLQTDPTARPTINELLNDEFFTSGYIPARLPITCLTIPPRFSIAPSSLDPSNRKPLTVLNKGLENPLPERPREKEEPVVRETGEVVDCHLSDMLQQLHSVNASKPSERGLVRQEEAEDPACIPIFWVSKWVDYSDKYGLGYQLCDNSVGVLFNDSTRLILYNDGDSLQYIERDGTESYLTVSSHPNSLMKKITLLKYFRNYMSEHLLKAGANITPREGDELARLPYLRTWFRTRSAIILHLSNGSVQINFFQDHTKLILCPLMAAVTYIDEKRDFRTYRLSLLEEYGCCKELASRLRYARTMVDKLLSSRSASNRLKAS", "assay": "In Vitro Plk1 Enzyme Assay (SPA, GST-Cdc25C phosphorylation)", "format": "biochemical", "conditions": "ATP 64 nM, 90 minutes, read-out: IC50 (Plk1 enzyme inhibition)", "experimental": "Reactions were stopped by addition of EDTA (110 mM) and the Cdc25C substrate captured via its GST tag to anti-GST antibody (Molecular Probes, Cat No A-5800) coated Protein A PVT SPA beads (Amersham Biosciences, Catalogue No. RPQ0019; 250 μg/well) in 50 mM HEPES pH7.5 buffer containing 0.05% (w/v) sodium azide and incubated for up to 2 hours, followed by the addition of 20 μl of 4M caesium chloride (final assay concentration of 1M). Plates were then left in the dark overnight before counting on a Packard TopCount NXT.\nRadiolabelled phosphorylated substrate is formed in situ as a result of Plk1 mediated phosphorylation. The SPA beads contain a scintillant that can be stimulated to emit light. This stimulation only occurs when a radiolabelled phosphorylated substrate is bound to the surface of the coated SPA bead causing the emission of blue light that can be measured on a scintillation counter. Accordingly, the extent of Plk1 mediated Cdc25C phosphorylation was assessed. The raw assay data were then analysed by non-linear regression analysis and Plk1 enzyme inhibition for a given test compound is expressed as an IC50 value."}}, "note": "pIC50: −log10 of the molar value.", "data": [{"smiles": "COc1cc(C(=O)NC2CCCCC2)ccc1Nc1ncc2c(n1)N(C1CCN(C)CC1)CCC(=O)N2C", "note": "[Example 233, N-cyclohexyl-3-methoxy-4-[[2-methyl-6-(1-methyl-4-piperidyl)-3-oxo-2,6,8,10-tetrazabicyclo[5.4.0]undeca-7,9,11-trien-9-yl]amino]benzamide]", "values": [{"measurement": "pIC50", "setting": "[1]", "value": "> 4.52"}, {"measurement": "pIC50", "setting": "[2]", "value": "> 6.00"}]}, {"smiles": "COc1cc(C(=O)NC[C@@H]2CCCN2CC2CC2)ccc1Nc1ncc2c(n1)N(C1CCCC1)CCC(=O)N2C", "note": "[Example 82, 4-[(6-cyclopentyl-2-methyl-3-oxo-2,6,8,10-tetrazabicyclo[5.4.0]undeca-8,10,12-trien-9-yl)amino]-N-[[(2S)-1-(cyclopropylmethyl)pyrrolidin-2-yl]methyl]-3-methoxy-benzamide]", "values": [{"measurement": "pIC50", "setting": "[1]", "value": "> 6.52"}, {"measurement": "pIC50", "setting": "[2]", "value": "> 6.52"}]}, {"smiles": "COc1cc(C(=O)NC2CCN(C)CC2)ccc1Nc1ncc2c(n1)N(C1CCCC1)CC(C)(C)C(=O)N2C", "note": "[Example 235, 4-[(2-cyclopentyl-4,4,6-trimethyl-5-oxo-2,6,9,11-tetrazabicyclo[5.4.0]undeca-7,9,11-trien-10-yl)amino]-3-methoxy-N-(1-methyl-4-piperidyl)benzamide]", "values": [{"measurement": "pIC50", "setting": "[1]", "value": "> 6.52"}, {"measurement": "pIC50", "setting": "[2]", "value": "> 6.52"}]}, {"smiles": "COc1cc(C(=O)NC2CCN(C)CC2)c(Cl)cc1Nc1ncc2c(n1)N(C1CCCC1)CCC(=O)N2C", "note": "[Example 320, 2-chloro-4-[(2-cyclopentyl-6-methyl-5-oxo-2,6,9,11-tetrazabicyclo[5.4.0]undeca-7,9,11-trien-10-yl)amino]-5-methoxy-N-(1-methyl-4-piperidyl)benzamide]", "values": [{"measurement": "pIC50", "setting": "[1]", "value": "> 6.52"}, {"measurement": "pIC50", "setting": "[2]", "value": "> 6.52"}]}, {"smiles": "COc1cc(C(=O)NC2CCC2)ccc1Nc1ncc2c(n1)N(C1CCCC1)CCC(=O)N2C", "note": "[Example 98, N-cyclobutyl-4-[(6-cyclopentyl-2-methyl-3-oxo-2,6,8,10-tetrazabicyclo[5.4.0]undeca-8,10,12-trien-9-yl)amino]-3-methoxy-benzamide]", "values": [{"measurement": "pIC50", "setting": "[1]", "value": "> 6.52"}, {"measurement": "pIC50", "setting": "[2]", "value": "> 6.00"}]}, {"smiles": "CC(C)Oc1cc(C(=O)NC2CCN(C)CC2)ccc1Nc1ncc2c(n1)N(C1CCCC1)CCC(=O)N2C", "note": "[Example 197, 4-[(6-cyclopentyl-2-methyl-3-oxo-2,6,8,10-tetrazabicyclo[5.4.0]undeca-8,10,12-trien-9-yl)amino]-N-(1-methyl-4-piperidyl)-3-propan-2-yloxy-benzamide]", "values": [{"measurement": "pIC50", "setting": "[1]", "value": "> 6.00"}, {"measurement": "pIC50", "setting": "[2]", "value": "> 6.00"}]}, {"smiles": "CN1CCC(NC(=O)c2ccc(Nc3ncc4c(n3)N(c3ccccc3)CCC(=O)N4C)cc2)CC1", "note": "[Example 224, 4-[(2-methyl-3-oxo-6-phenyl-2,6,8,10-tetrazabicyclo[5.4.0]undeca-8,10,12-trien-9-yl)amino]-N-(1-methyl-4-piperidyl)benzamide]", "values": [{"measurement": "pIC50", "setting": "[1]", "value": "> 4.52"}, {"measurement": "pIC50", "setting": "[2]", "value": "> 6.52"}]}, {"smiles": "COc1cc(C(=O)N[C@H]2C[C@H]3CCC[C@@H](C2)N3C)ccc1Nc1ncc2c(n1)N(C1CCCC1)CCC(=O)N2C", "note": "[Example 59, 4-[(6-cyclopentyl-2-methyl-3-oxo-2,6,8,10-tetrazabicyclo[5.4.0]undeca-8,10,12-trien-9-yl)amino]-3-methoxy-N-[(1S,5R)-9-methyl-9-azabicyclo[3.3.1]non-7-yl]benzamide]", "values": [{"measurement": "pIC50", "setting": "[1]", "value": "> 6.52"}, {"measurement": "pIC50", "setting": "[2]", "value": "> 6.52"}]}, {"smiles": "COc1cc(C(=O)N[C@H]2[C@@H]3CNC[C@@H]32)ccc1Nc1ncc2c(n1)N(C1CCCC1)CCC(=O)N2C", "note": "[Example 57, N-[(1S,5R)-3-azabicyclo[3.1.0]hex-6-yl]-4-[(6-cyclopentyl-2-methyl-3-oxo-2,6,8,10-tetrazabicyclo[5.4.0]undeca-8,10,12-trien-9-yl)amino]-3-methoxy-benzamide]", "values": [{"measurement": "pIC50", "setting": "[1]", "value": "> 6.52"}, {"measurement": "pIC50", "setting": "[2]", "value": "> 6.52"}]}, {"smiles": "CN1C(=O)CCN(C2CCCC2)c2nc(Nc3ccc(C(=O)NCCN4CCCC4)cc3Cl)ncc21", "note": "[Example 318, 3-chloro-4-[(2-cyclopentyl-6-methyl-5-oxo-2,6,9,11-tetrazabicyclo[5.4.0]undeca-7,9,11-trien-10-yl)amino]-N-(2-pyrrolidin-1-ylethyl)benzamide]", "values": [{"measurement": "pIC50", "setting": "[1]", "value": "> 6.52"}, {"measurement": "pIC50", "setting": "[2]", "value": "> 6.52"}]}, {"smiles": "COc1cc(C(=O)NC2CCN(C)CC2)ccc1Nc1ncc2c(n1)N(C1CCCC1)CC(C)C(=O)N2C", "note": "(single isomer, unassigned) [Example 240]", "values": [{"measurement": "pIC50", "setting": "[1]", "value": "> 6.52"}, {"measurement": "pIC50", "setting": "[2]", "value": "> 6.52"}]}, {"smiles": "CCN1CCC(NC(=O)c2cc(Cl)c(Nc3ncc4c(n3)N(C3CCCC3)CCC(=O)N4C)cc2F)CC1", "note": "[Example 323, 5-chloro-4-[(2-cyclopentyl-6-methyl-5-oxo-2,6,9,11-tetrazabicyclo[5.4.0]undeca-7,9,11-trien-10-yl)amino]-N-(1-ethyl-4-piperidyl)-2-fluoro-benzamide]", "values": [{"measurement": "pIC50", "setting": "[1]", "value": "> 6.52"}, {"measurement": "pIC50", "setting": "[2]", "value": "> 6.00"}]}, {"smiles": "COc1cc(C(=O)NC2CCN(C(C)C)CC2)ccc1Nc1ncc2c(n1)N(C1CCCC1)CCC(=O)N2C", "note": "[Example 49, 4-[(6-cyclopentyl-2-methyl-3-oxo-2,6,8,10-tetrazabicyclo[5.4.0]undeca-8,10,12-trien-9-yl)amino]-3-methoxy-N-(1-propan-2-yl-4-piperidyl)benzamide]", "values": [{"measurement": "pIC50", "setting": "[1]", "value": "> 6.52"}, {"measurement": "pIC50", "setting": "[2]", "value": "> 6.52"}]}, {"smiles": "COc1cc(C(=O)NC2CCN(C)CC2)ccc1Nc1ncc2c(n1)N(CC(=N)OC(C)CC(C)C)CCC(=O)N2C", "note": "(stereo not shown) [Example 272, 3-methoxy-4-[[6-methyl-2-[(4-methylpentan-2-yloxycarbonimidoyl)methyl]-5-oxo-2,6,9,11-tetrazabicyclo[5.4.0]undeca-7,9,11-trien-10-yl]amino]-N-(1-methyl-4-piperidyl)benzamide]", "values": [{"measurement": "pIC50", "setting": "[1]", "value": "> 4.52"}, {"measurement": "pIC50", "setting": "[2]", "value": "> 6.00"}]}]}
